Measured values taken from patent US20170119020A1, “METHOD OF FEEDING AN ANIMAL” (CARGILL, INCORPORATED, priority 2014, published 2017).

Assays:
[1] = test system: Ross 308 breeders; experiment: Broiler breeder performance, weeks 30 through 39 of age (Example 4); type: in vivo, chicken; conditions: breeder diet
Text: All breeders received the same standard control diet during the pre-experimental period (19-30 weeks of age). […] In total there were 24 floor pens with 30 breeder females and 3 males (after allocation). The experimental period lasted 9 weeks; the breeders received a lay phase diet during the entire experimental period. Feed and water were restricted. Feed amount depended on body weight development. Water was provided for two hours a day, crops were checked regularly to ensure the correct amount of water was provided. [table]

[2] = test system: Cobb 500FF breeder chickens; experiment: Broiler breeder performance, partial replacement of vitamin E by PROVIOX 50 (Example 1); type: in vivo, chicken
Experimental: Two different breeder diets (Table 1) were tested in a randomized block design. Breeders received a standard control diet or a diet where 50% of the vitamin E was replaced by PROVIOX 50. The two diets were randomly distributed into six cages, resulting in three replicates per treatment with 28, 29, or 30 females and […] per replicate.
The experimental period lasted four weeks; the breeders received a lay start diet during the entire period according to the experimental design. Feed and water were restricted. Feed amount depended on body weight development. Water was provided for two hours a day, crops were checked regularly to ensure the correct amount of water was provided.
A total of 24 male and 173 female Cobb 500FF 20-week-breeder chickens were procured. The males and females were randomly assigned to six floor pens (four males per pen, 29 females in pens 1-3, 30 females in pen 4, and 28 females in pens 5 and 6). During the pre-trial period, all breeders received the control diet.
Throughout the trial, breeders were housed in broiler breeder floor pens ([…]) on litter (flax). Each pen was equipped with two bell drinkers adjustable in height. The feed for the females was supplied via two feeder bowls on the raised slatted floor. The feed for the males was supplied via a feeder trough on the other side of the pen.
Day length was set at 14 hours a day until peak production was reached (70%; day 15). After peak production was achieved, day length was set to 15 hours a day. Temperature and ventilation were computer controlled. The temperature was set at 20° C. for the entire experimental period.
Individual bird weights were recorded weekly from the start of the experiment. Feed amount provided was recorded on a daily basis. Egg production and egg quality data were recorded on a daily basis. Laying % was calculated as number of eggs produced per pen divided by the number of bird days of the experimental period. Egg mass production per pen per week was calculated as laying % (including second-class eggs) times average egg weight of the pen. Average egg weight was determined per pen once a week. Second-class eggs were divided into dirty eggs, broken eggs, shell-less eggs, double-yolk eggs, floor eggs and remaining second-class eggs. Mortality was checked every day; dead animals were not replaced during the experimental period.

[3] = breeders 26 through 30 weeks of age

Cc1c(C)c2c(c(C)c1O)CCC(C)(CCCC(C)CCCC(C)CCCC(C)C)O2 (racemic) [Vitamin E, DL-α-tocopherol]
Average daily gain 30-34 wk ([1]; vitamin E equivalence 80 ppm): 5.36 g | Average daily gain 30-39 wk ([1]; vitamin E equivalence 80 ppm): 5.79 g | Average daily gain 34-39 wk ([1]; vitamin E equivalence 80 ppm): 5.96 g | Bodyweight 30 wks ([1]; vitamin E equivalence 80 ppm): 3.51 kg | Bodyweight 39 wks ([1]; vitamin E equivalence 80 ppm): 3.88 kg | Egg mass 30-34 wks ([1]; vitamin E equivalence 80 ppm): 52.4 g/h/d | Egg mass 30-39 wks ([1]; vitamin E equivalence 80 ppm): 51.6 g/h/d | Egg mass 34-39 wks ([1]; vitamin E equivalence 80 ppm): 50.9 g/h/d | Egg weight 30-34 wks ([1]; vitamin E equivalence 80 ppm): 60.1 g | Egg weight 30-39 wks ([1]; vitamin E equivalence 80 ppm): 61.2 g | Egg weight 34-39 wks ([1]; vitamin E equivalence 80 ppm): 62.4 g | First Class Eggs 30-34 wks ([1]; vitamin E equivalence 80 ppm): 80.2% | First Class Eggs 30-39 wks ([1]; vitamin E equivalence 80 ppm): 77.0% | First Class Eggs 34-39 wks ([1]; vitamin E equivalence 80 ppm): 73.8% | Laying in percentage 30-34 wks ([1]; vitamin E equivalence 80 ppm): 87.1% | Laying in percentage 30-39 wks ([1]; vitamin E equivalence 80 ppm): 84.3% | Laying in percentage 34-39 wks ([1]; vitamin E equivalence 80 ppm): 81.5% | Second Choice Eggs: Broken Eggs 30-34 wks ([1]; vitamin E equivalence 80 ppm): 1.2% | Second Choice Eggs: Broken Eggs 30-39 wks ([1]; vitamin E equivalence 80 ppm): 1.2% | Second Choice Eggs: Broken Eggs 34-39 wks ([1]; vitamin E equivalence 80 ppm): 1.2% | Second Choice Eggs: Dirty Eggs 30-34 wks ([1]; vitamin E equivalence 80 ppm): 1.4% | Second Choice Eggs: Dirty Eggs 30-39 wks ([1]; vitamin E equivalence 80 ppm): 1.7% | Second Choice Eggs: Dirty Eggs 34-39 wks ([1]; vitamin E equivalence 80 ppm): 1.9% | Second Choice Eggs: Double yolk Eggs 30-34 wks ([1]; vitamin E equivalence 80 ppm): 1.3% | Second Choice Eggs: Double yolk Eggs 30-39 wks ([1]; vitamin E equivalence 80 ppm): 0.9% | Second Choice Eggs: Double yolk Eggs 34-39 wks ([1]; vitamin E equivalence 80 ppm): 0.4% | Second Choice Eggs: Floor eggs, 30-34 wks ([1]; vitamin E equivalence 80 ppm): 2.3% | Second Choice Eggs: Floor eggs, 30-39 wks ([1]; vitamin E equivalence 80 ppm): 2.8% | Second Choice Eggs: Floor eggs, 34-39 wks ([1]; vitamin E equivalence 80 ppm): 3.4% | Second Choice Eggs: Remainder 30-34 wks ([1]; vitamin E equivalence 80 ppm): 0.5% | Second Choice Eggs: Remainder 30-39 wks ([1]; vitamin E equivalence 80 ppm): 0.6% | Second Choice Eggs: Remainder 34-39 wks ([1]; vitamin E equivalence 80 ppm): 0.8% | Second Choice Eggs: Shell less Eggs 30-34 wks ([1]; vitamin E equivalence 80 ppm): 0.2% | Second Choice Eggs: Shell less Eggs 30-39 wks ([1]; vitamin E equivalence 80 ppm): 0.1% | Second Choice Eggs: Shell less Eggs 34-39 wks ([1]; vitamin E equivalence 80 ppm): 0.0% | Average daily gain 30-34 wk ([1]; vitamin E equivalence 160 ppm): 5.65 g | Average daily gain 30-39 wk ([1]; vitamin E equivalence 160 ppm): 5.60 g | Average daily gain 34-39 wk ([1]; vitamin E equivalence 160 ppm): 5.40 g | Bodyweight 30 wks ([1]; vitamin E equivalence 160 ppm): 3.48 kg | Bodyweight 39 wks ([1]; vitamin E equivalence 160 ppm): 3.83 kg | Egg mass 30-34 wks ([1]; vitamin E equivalence 160 ppm): 52.5 g/h/d | Egg mass 30-39 wks ([1]; vitamin E equivalence 160 ppm): 52.4 g/h/d | Egg mass 34-39 wks ([1]; vitamin E equivalence 160 ppm): 52.2 g/h/d | Egg weight 30-34 wks ([1]; vitamin E equivalence 160 ppm): 60.3 g | Egg weight 30-39 wks ([1]; vitamin E equivalence 160 ppm): 61.6 g | Egg weight 34-39 wks ([1]; vitamin E equivalence 160 ppm): 62.9 g | First Class Eggs 30-34 wks ([1]; vitamin E equivalence 160 ppm): 78.6% | First Class Eggs 30-39 wks ([1]; vitamin E equivalence 160 ppm): 76.5% | First Class Eggs 34-39 wks ([1]; vitamin E equivalence 160 ppm): 74.4% | Laying in percentage 30-34 wks ([1]; vitamin E equivalence 160 ppm): 87.0% | Laying in percentage 30-39 wks ([1]; vitamin E equivalence 160 ppm): 85.0% | Laying in percentage 34-39 wks ([1]; vitamin E equivalence 160 ppm): 83.0% | Second Choice Eggs: Broken Eggs 30-34 wks ([1]; vitamin E equivalence 160 ppm): 1.2% | Second Choice Eggs: Broken Eggs 30-39 wks ([1]; vitamin E equivalence 160 ppm): 1.3% | Second Choice Eggs: Broken Eggs 34-39 wks ([1]; vitamin E equivalence 160 ppm): 1.5% | Second Choice Eggs: Dirty Eggs 30-34 wks ([1]; vitamin E equivalence 160 ppm): 1.8% | Second Choice Eggs: Dirty Eggs 30-39 wks ([1]; vitamin E equivalence 160 ppm): 1.8% | Second Choice Eggs: Dirty Eggs 34-39 wks ([1]; vitamin E equivalence 160 ppm): 1.7% | Second Choice Eggs: Double yolk Eggs 30-34 wks ([1]; vitamin E equivalence 160 ppm): 1.1% | Second Choice Eggs: Double yolk Eggs 30-39 wks ([1]; vitamin E equivalence 160 ppm): 0.8% | Second Choice Eggs: Double yolk Eggs 34-39 wks ([1]; vitamin E equivalence 160 ppm): 0.5% | Second Choice Eggs: Floor eggs, 30-34 wks ([1]; vitamin E equivalence 160 ppm): 3.3% | Second Choice Eggs: Floor eggs, 30-39 wks ([1]; vitamin E equivalence 160 ppm): 3.7% | Second Choice Eggs: Floor eggs, 34-39 wks ([1]; vitamin E equivalence 160 ppm): 4.1% | Second Choice Eggs: Remainder 30-34 wks ([1]; vitamin E equivalence 160 ppm): 0.8% | Second Choice Eggs: Remainder 30-39 wks ([1]; vitamin E equivalence 160 ppm): 0.7% | Second Choice Eggs: Remainder 34-39 wks ([1]; vitamin E equivalence 160 ppm): 0.6% | Second Choice Eggs: Shell less Eggs 30-34 wks ([1]; vitamin E equivalence 160 ppm): 0.3% | Second Choice Eggs: Shell less Eggs 30-39 wks ([1]; vitamin E equivalence 160 ppm): 0.2% | Second Choice Eggs: Shell less Eggs 34-39 wks ([1]; vitamin E equivalence 160 ppm): 0.2% | Egg Mass [2, 3]: 47.1 g/hen/day | Egg Weight [2, 3]: 56.4 g | First Class Eggs [2, 3]: 77.9% | Second Choice Eggs: Broken Eggs [2, 3]: 1.6% | Second Choice Eggs: Dirty Eggs [2, 3]: 0.7% | Second Choice Eggs: Double Yolk Eggs [2, 3]: 1.3% | Second Choice Eggs: Floor Eggs [2, 3]: 1.4% | Second Choice Eggs: Remainder [2, 3]: 0.5% | Second Choice Eggs: Shell Less Eggs [2, 3]: 0.1% | Laying Percentage ([2]; breeders 26 through 30 weeks of age, half of vitamin E replaced by PROVIOX 50): 83.6% | BW 30 wk Females ([2]; in vivo): 3.68 kg | BW 30 wk Males ([2]; in vivo): 4.19 kg | BW 26 wk Females ([2]; start of experiment): 3.50 kg | BW 26 wk Males ([2]; start of experiment): 3.91 kg
